What was measured:
mice = experiment: Observation of side effects (gait, mobility, prone behavior) during administration in the elevated plus maze experiment; format: in vivo; design: key to Gait, Level / mobility, Level / prone behavior, Level: “+” indicates severity; ++: “+” indicates severity; +++: three “+” are the most severe, with time to resume normal action >60 minutes; conditions: for Gait, Number / mobility, Number / prone behavior, Number: 10 mice per group; for side effects compared to the positive drug: 3 mg/kg, mice
Procedure: Since the drugs which are acting on GABA (A) receptor can produce behavioral anesthesia (side effects), side effects of mice during administration were observed during the course of the elevated plus maze experiment. […] “+” indicates severity, three “+” are the most severe, with time to resume normal action >60 minutes.

GABAA1 (α1β2γ2) receptor = biological target: T1, GABAA1 (α1β2γ2) receptor (Homo sapiens, UniProt P14867+P47870); experiment: Patch-clamp electrophysiology on recombinant GABAA1 receptor in HEK293 cells, with 3 μM GABA; format: cell-based; conditions: for Emax at 0.1 µM / Emax at 1 µM / Emax: HEK293; for Emax at 0.1 µM: 0.1 μM compound together with 3 μmol GABA; for Emax at 0.1 µM / Emax at 1 µM: read-out: potency: ratio of the peak current on the GABAA1 receptor to the peak current in 100 μmol GABA; for Emax at 1 µM: 1 μM compound together with 3 μmol GABA; for Emax / EC50: together with 3 μmol GABA; for Emax: relative to peak current in 100 μmol GABA
T1 construct: expressed in transfected cells
T1 sequence (P14867 28-456): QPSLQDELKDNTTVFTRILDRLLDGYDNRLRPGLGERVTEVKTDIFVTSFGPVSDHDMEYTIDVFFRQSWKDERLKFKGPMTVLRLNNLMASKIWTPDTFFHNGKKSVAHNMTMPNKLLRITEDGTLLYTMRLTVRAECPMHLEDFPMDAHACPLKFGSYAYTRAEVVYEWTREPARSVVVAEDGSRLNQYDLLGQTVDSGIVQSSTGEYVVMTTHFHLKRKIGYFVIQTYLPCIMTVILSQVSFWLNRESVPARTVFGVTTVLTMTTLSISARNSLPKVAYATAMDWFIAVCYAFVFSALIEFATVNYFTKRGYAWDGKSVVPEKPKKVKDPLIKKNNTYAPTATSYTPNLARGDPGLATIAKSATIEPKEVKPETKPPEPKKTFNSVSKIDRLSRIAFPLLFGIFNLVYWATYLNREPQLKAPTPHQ
T1 sequence (P47870 26-512): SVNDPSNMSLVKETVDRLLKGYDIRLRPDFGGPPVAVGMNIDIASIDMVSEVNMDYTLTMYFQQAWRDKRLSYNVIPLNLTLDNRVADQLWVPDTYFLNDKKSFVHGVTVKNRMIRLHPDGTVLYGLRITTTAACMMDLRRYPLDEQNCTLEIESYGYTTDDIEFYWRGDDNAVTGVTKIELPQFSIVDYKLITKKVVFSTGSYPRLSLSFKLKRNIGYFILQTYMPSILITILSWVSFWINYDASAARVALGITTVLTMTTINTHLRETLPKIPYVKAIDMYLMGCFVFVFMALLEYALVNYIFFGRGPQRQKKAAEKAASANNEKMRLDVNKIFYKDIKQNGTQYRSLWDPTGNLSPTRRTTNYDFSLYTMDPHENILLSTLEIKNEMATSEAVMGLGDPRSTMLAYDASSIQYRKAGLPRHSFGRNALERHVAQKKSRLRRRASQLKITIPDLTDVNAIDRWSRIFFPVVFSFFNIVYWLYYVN
T1 sequence (P18507 40-475 partner): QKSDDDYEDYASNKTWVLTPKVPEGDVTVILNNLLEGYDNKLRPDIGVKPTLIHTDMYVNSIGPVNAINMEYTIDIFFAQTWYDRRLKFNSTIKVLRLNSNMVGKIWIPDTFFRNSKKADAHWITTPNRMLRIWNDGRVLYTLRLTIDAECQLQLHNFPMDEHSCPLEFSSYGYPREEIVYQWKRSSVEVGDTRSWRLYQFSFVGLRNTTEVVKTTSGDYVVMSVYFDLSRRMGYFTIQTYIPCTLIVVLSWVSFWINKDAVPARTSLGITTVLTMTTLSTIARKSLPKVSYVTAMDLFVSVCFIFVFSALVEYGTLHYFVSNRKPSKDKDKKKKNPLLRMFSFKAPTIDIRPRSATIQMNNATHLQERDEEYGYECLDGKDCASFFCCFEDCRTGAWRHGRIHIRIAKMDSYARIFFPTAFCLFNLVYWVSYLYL
Procedure: The present invention applies the two subunits of the recombinant GABAA receptor: α1β2γ2 and α4β3δ to evaluate the potency of the exemplary compounds in vitro by patch-clamp electrophysiology.
Extracellular fluid: 140 mM NaCl, 5 mM CsCl, 2 mM CaCl2·2H2O, 1 mM MgCl2·6H2O, 5 mM HEPES, 10 mM D-Glucose, pH=7.4 (NaOH).
Intracellular fluid: 130 mM CsCl, 0.1 mM CaCl2·H2O, 2 mM MgCl2·6H2O, 1.1 mM EGTA, 5 mM Na2-ATP, 10 mM HEPES, pH=7.2 (CsOH).
The HEK293 cells line stably expressing GABAA (α1β2γ2) receptors was cultured in Dulbecco's Modified Eagle Medium (DMEM) supplemented with 10% fetal bovine serum, 800 μg/mL G418, 200 μg/mL Hygromycin B and 100 μg/mL Zeocin. Cells were grown in a humidified incubator at 37° C. with 5% carbon dioxide.
Before manual patch clamp test, the cells were detached using 0.25%-Trypsin-EDTA solution. Then 8×10^3 cells were plated onto coverslips, and cultured in a 24-well plate (final medium volume: 500 μL) and tested after 18 hours by patch clamp.
Glass pipette (BF 150-86-10, Sutter Instruments) was pulled using a micropipette puller (P97, Sutter Instruments). The glass pipette was manipulated using a micro-manipulator (MP285, Sutter Instruments) under the microscope (IX71, Olympus). After touching the cell, a slight suction was applied to achieve high seal resistance (GQ). Fast capacitance (in pF) compensation was made after achieving high seal, and the membrane was broken. Cell capacitance (in pF) compensation was made from whole-cell capacitance compensation after the whole cell mode was achieved. No leak subtraction was made.
The test and control solutions flowed into a recording chamber mounted on the stage of an inverted microscope via a gravity-fed solution delivery system. During the experiment, solutions were withdrawn from the recording chamber by vacuum aspiration. Each concentration was tested at multiple times. All tests were performed at room temperature.
Whole cell model recorded GABAA1 receptors current experimental protocol was indicated as follows: When sealing, cell was at a holding potential of −70 mV, with gap-free mode to record the peak current. The cell would be applied with 3 μM GABA to active current. After the test articles application for 30 s, each concentration of test articles was applied with 3 μM GABA followed by 2 minutes washout using extracellular solution. Finally, 100 μM GABA was used as a positive control. The data were collected by EPC-10 amplifier and stored in PatchMaster (HEKA) software.
The following criteria are used to determine whether the data is acceptable: • (1) Electrode resistance <5MΩ • (2) Seal resistance >1GΩ • (3) The start of access resistance <15 MΩ • (4) The end of access resistance <15 MΩ • (5) No obvious spontaneous current decay. • (6) No obvious current leakage when the membrane potential is-70 mv. 56.6 Data Analysis
In the detection of GABAA1, the currents of 3 μM GABA and different concentrations of test compounds were respectively normalized to the current of 100 μM GABA
[formula] and then the activation rate corresponding to each concentration was calculated.
[formula] and then the activation rate corresponding to each concentration was calculated. Means, Standard Deviation and Standard Error were calculated for each test group. EC50 value was calculated using nonlinear regression: Y=Bottom+(Top−Bottom)/(1+10^((Log EC50−X)×HillSlope))
To fit data to the concentration-response, EC50 was the concentration giving a half-maximum effect and Hillslope was the Hill coefficient. Curve-fitting and EC50 calculations were performed using Graphpad5.0 software.
Emax is defined as the ratio of the peak current generated on the GABAA1 receptor to the peak current generated only in 100 μmol of GABA and the ratio is multiplied by 100%. The peak current generated on the GABAA1 receptor is that the exemplary compounds act on the GABAA1 receptor together with 3 μmol GABA.

Compound	Gait, Level (mice; 3mg/kg, the first day)	mobility, Level (mice; 3mg/kg, the first day)	Gait, Number (mice; 3mg/kg, the first day)	mobility, Number (mice; 3mg/kg, the first day)	prone behavior, Number (mice; 3mg/kg, the first day)	Gait, Level (mice; 3mg/kg, the forth day)	mobility, Level (mice; 3mg/kg, the forth day)	Gait, Number (mice; 3mg/kg, the forth day)	mobility, Number (mice; 3mg/kg, the forth day)	prone behavior, Number (mice; 3mg/kg, the forth day)	Gait, Number (mice; 3mg/kg, the second day)	mobility, Number (mice; 3mg/kg, the second day)	prone behavior, Number (mice; 3mg/kg, the second day)	Gait, Level (mice; 3mg/kg, the third day)	Gait, Number (mice; 3mg/kg, the third day)	mobility, Number (mice; 3mg/kg, the third day)	prone behavior, Number (mice; 3mg/kg, the third day)	Emax at 0.1 µM (GABAA1 (α1β2γ2) receptor) [%]	Emax at 1 µM (GABAA1 (α1β2γ2) receptor) [%]	Emax (GABAA1 (α1β2γ2) receptor) [%]	also measured
C[C@@]1(O)CC[C@H]2[C@H](CC[C@@H]3[C@@H]2CC[C@]2(C)[C@@H](C(=O)Cn4cc(C#N)cn4)CC[C@@H]32)C1 [The control, reference compound]	++	+++ (three “+” are the most severe, with time to resume normal action >60 minutes)	7	3	2	+	+	9	5	0	6	0	0	+	8	4	0	0 to 20	20 to 40	84.2	prone behavior, Level (mice; 3mg/kg, the first day): +; Gait, Level (mice; 3mg/kg, the second day): ++; mobility, Level (mice; 3mg/kg, the third day): ++
C[C@@]1(O)CC[C@@]2(C)[C@@H](CC[C@@H]3[C@@H]2CC[C@]2(C)[C@@H](C(=O)Cn4ncnn4)CCC[C@@H]32)C1 [KH022]	+	++	3	1	0	+	+	3	1	0	2	0	0	+	1	0	0	0 to 20	40 to 60	93.1	side effects compared to the positive drug (mice): less side effects; Gait, Level (mice; 3mg/kg, the second day): +; EC50 (GABAA1 (α1β2γ2) receptor): 821 nM
C[C@]12CC[C@@H](O)C[C@@H]1CC[C@@H]1[C@@H]2CC[C@]2(C)[C@@H](C(=O)Cn3ncnn3)CCC[C@@H]12 [KH004]	–	–	0	0	0	–	–	0	0	0	0	0	0	+	1	0	0	20 to 40	> 80	106	side effects compared to the positive drug (mice): less side effects; EC50 (GABAA1 (α1β2γ2) receptor): 404 nM
